Laboratory results reported in patent US6500431B1, “Inhibitors of angiogenesis and tumor growth” (University of Southern California, priority 1998, dated 2002).
pIC50: −log10 of the molar value. No end group written: not given here.

Experiments:
KS Y-1 cells = experiment: KS Y-1 cell proliferation assay (MTT); assay type: cell-based; conditions: for KS Cell Proliferation, % of Control: 7,500 KS Y-1 cells/well; for KS Cell Proliferation, % of Control / Cell Proliferation Activity (% of control), KSY-1: 5 days, MTT; for Cell Proliferation Activity (% of control), KSY-1: concentration not printed
Protocol: (§1) To determine if Saposin B polypeptides had anti-angiogenic activity, a series of overlapping polypeptides were synthesized and tested in the KS Y-1 cell proliferation assay. The overlapping polypeptides are SEQ ID NOS:13 though 42. Cell Proliferation assays in either KS cells or fibroblast. Cells were plated in 48 well plates at equal numbers in appropriate culture medium. Cells were treated with the test compounds at various concentrations on day one, and on day 3. MTT was done on day 5. KS cells were used to represent the activated endothelial cells, while fibroblast cells represent the control cells. The results are remarkable for the lack of toxicity to the fibroblast relative to the activated endothelial cells/KS cells.

T1 cells = experiment: Fibroblast proliferation assay (MTT); assay type: cell-based; conditions: for Cell Proliferation Activity (% of control), T1: concentration not given, 5 days; for Fibroblast Proliferation, % of Control: 5000 T1 cells/well, 7 days
Protocol: as §1, with “MTT was done on day 5.” left out

[1] = first of two KSY-1 value columns
[2] = second of two KSY-1 value columns

Row | Substance | KS Cell Proliferation, % of Control (KS Y-1 cells; 10 μg/ml) | Cell Proliferation Activity (% of control), T1 (T1 cells) | Cell Proliferation Activity (% of control), T1 (T1 cells; first of two T1 value columns) | Cell Proliferation Activity (% of control), KSY-1 (KS Y-1 cells; [1]) | Cell Proliferation Activity (% of control), KSY-1 (KS Y-1 cells; [2]) | other results
1 | IQMVTDIQTAVRTNSTF [SEQ ID NO:14] | 89.3 % of Control |  |  |  |  | KS Cell Proliferation, % of Control (KS Y-1 cells; 100 μg/mL): 60.7 % of Control; KS Cell Proliferation, % of Control (KS Y-1 cells; 500 μg/mL): 28.6 % of Control
2 | CQDCIQMV [SEQ ID NO:30] |  | 84 % of control | 92 % of control | 77 % of control | 35 % of control | 
3 | GDVCQ [SEQ ID NO:22] | 59.1 % of Control |  |  | 59 % of control | 28 % of control | Fibroblast Proliferation, % of Control (T1 cells; 1 μg/mL): 95.7 % of Control; Fibroblast Proliferation, % of Control (T1 cells; 10 μg/mL): 95.7 % of Control; Fibroblast Proliferation, % of Control (T1 cells; 50 μg/mL): 87.0 % of Control; KS Cell Proliferation, % of Control (KS Y-1 cells; 1 μg/mL): 158.3 % of Control; KS Cell Proliferation, % of Control (KS Y-1 cells; 5 μg/mL): 77.4 % of Control; KS Cell Proliferation, % of Control (KS Y-1 cells; 50 μg/mL): 37.4 % of Control
4 | DVCQDCIQ [SEQ ID NO:25] |  | 89 % of control | 98 % of control | 72 % of control | 39 % of control | 
5 | GDVSQDSIQMV [SEQ ID NO:20] | 92.9 % of Control |  |  | 93 % of control | 84 % of control | Fibroblast Proliferation, % of Control (T1 cells; 1 μg/mL): 91.3 % of Control; Fibroblast Proliferation, % of Control (T1 cells; 10 μg/mL): 95.7 % of Control; Fibroblast Proliferation, % of Control (T1 cells; 50 μg/mL): 95.7 % of Control; KS Cell Proliferation, % of Control (KS Y-1 cells; 1 μg/mL): 100.0 % of Control; KS Cell Proliferation, % of Control (KS Y-1 cells; 5 μg/mL): 96.4 % of Control; KS Cell Proliferation, % of Control (KS Y-1 cells; 50 μg/mL): 82.1 % of Control
6 | DVCQDC [SEQ ID NO:27] |  | 75 % of control | 88 % of control | 60 % of control | 22 % of control | 
7 | QPKDNGDVCQDCIQV [SEQ ID NO:13] | 17.9 % of Control |  |  |  |  | KS Cell Proliferation, % of Control (KS Y-1 cells; 1 μg/mL): 51.8 % of Control; KS Cell Proliferation, % of Control (KS Y-1 cells; 50 μg/mL): 1.8 % of Control; KS Cell Proliferation, % of Control (KS Y-1 cells; 100 μg/mL): 1.8 % of Control; KS Cell Proliferation, % of Control (KS Y-1 cells; 500 μg/mL): 1.8 % of Control
8 | GDVCQDSIQMV [SEQ ID NO:33, GDVCQDSIQMV] |  |  |  |  |  | pIC50 (KS Y-1 cells): 5.11
9 | VCQDCIQMV [SEQ ID NO:29] |  | 86 % of control | 95 % of control | 65 % of control | 33 % of control | 
10 | STFVQALVEHVKEECDR [SEQ ID NO:15] | 101.8 % of Control |  |  |  |  | KS Cell Proliferation, % of Control (KS Y-1 cells; 100 μg/mL): 60.7 % of Control; KS Cell Proliferation, % of Control (KS Y-1 cells; 500 μg/mL): 28.6 % of Control
11 | GDVSQDCIQMV [SEQ ID NO:32, GDVSQDCIQMV] |  |  |  |  |  | pIC50 (KS Y-1 cells): 4.74
